Test results reported in patent US7556938B1, “Nucleic acids encoding potassium channel interactors” (Millennium Pharmaceuticals, Inc., priority 1998, dated 2009).

Tests used:
[1] = molecular target: T1, Kv4.3/KChIP1 (Rattus norvegicus, UniProt Q62897); test: Fatty acid modulation of Kv4.3/KChIP1 current in Xenopus oocytes; assay type: cell-based
T1 sequence (Q62897 1-655): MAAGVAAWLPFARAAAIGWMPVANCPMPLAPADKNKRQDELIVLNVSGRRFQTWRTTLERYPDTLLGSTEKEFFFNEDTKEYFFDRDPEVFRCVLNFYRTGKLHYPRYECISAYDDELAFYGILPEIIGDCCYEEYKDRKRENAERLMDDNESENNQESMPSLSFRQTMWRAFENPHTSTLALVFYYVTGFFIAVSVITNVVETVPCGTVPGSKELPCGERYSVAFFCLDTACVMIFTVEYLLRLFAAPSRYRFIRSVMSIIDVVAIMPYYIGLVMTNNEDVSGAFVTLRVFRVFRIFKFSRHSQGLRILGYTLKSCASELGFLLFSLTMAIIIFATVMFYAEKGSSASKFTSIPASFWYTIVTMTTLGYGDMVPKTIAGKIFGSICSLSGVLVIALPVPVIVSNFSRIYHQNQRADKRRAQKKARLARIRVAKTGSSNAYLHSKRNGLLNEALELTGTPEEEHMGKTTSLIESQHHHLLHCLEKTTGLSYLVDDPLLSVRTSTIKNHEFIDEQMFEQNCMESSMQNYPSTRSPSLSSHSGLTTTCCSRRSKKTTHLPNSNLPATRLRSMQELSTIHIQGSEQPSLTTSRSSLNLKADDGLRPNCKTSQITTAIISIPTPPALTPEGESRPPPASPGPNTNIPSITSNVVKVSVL
T1 sequence (Q8R426 1-216 isoform Q8R426-2 partner): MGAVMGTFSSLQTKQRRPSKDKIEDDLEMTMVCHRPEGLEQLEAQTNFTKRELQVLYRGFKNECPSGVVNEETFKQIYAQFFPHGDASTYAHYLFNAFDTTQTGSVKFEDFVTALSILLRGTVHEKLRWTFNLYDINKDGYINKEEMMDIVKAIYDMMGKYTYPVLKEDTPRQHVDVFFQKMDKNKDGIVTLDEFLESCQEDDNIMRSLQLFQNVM
Protocol: Frogs underwent no more than two surgeries and surgeries were performed by well established techniques. Frogs were anesthetized with ice. Total cRNA (1-10 ng) was injected into stage IV Xenopus oocytes that were harvested the previous day. The Xenopus oocytes were incubated in ND96 containing (in mM) 96 NaCl, 2 KCl, 1.8 CaCl2, 1 MgCl2, 5 HEPES, pH 7.6, plus (Gentamycin 50 μg/ml) at 18° C. Xenopus oocytes were studied 3-7 days after injection. The two-electrode voltage-clamp recordings were performed in ND96 solution using a TURBO TEC 03 Clamp Amplifier (ALA Scientific Instruments, Westbury, N.Y.). Both electrodes were filled with 3 M KCl and had electrode resistances ranging from 0.2-1 MOhm. The current signals were filtered at 1000 Hz before transferred on a PC (Gateway, Calif.) using the PULSE software (HEKA, Germany). In this Example, the hypothesis that […] were the missing auxiliary subunits that accounted for the above kinetic discrepancy was investigated by expressing Kv4 alone or together with […] in both CHO cells and Xenopus oocytes, and measuring their inactivation time constants (using art known techniques as described in, for example, An et al. (2000) Nature 403:553-6; Keros, S. and […]. Neuroscience 17: 3476-87; and Villarroel, A. and […]. Neuroscience 16:2522-32). The effects of different concentrations of arachidonic acid on Kv4/KChIP current was studied in Xenopus oocytes. Because the physiological concentrations of arachidonic acid are often under 10 μM (Needleman, et al., 1986 Annu Rev Biochem 55:69-102; Anderson and Welsh, 1990, Proc Natl Acad Sci USA 87:7334-8; Meves, 1994, Prog Neurobiol 43:175-86), arachidonic acid was tested in the 1-10 μM range. […] Further, the slope of amplitude reduction as a function of increasing concentrations was very similar with or without the presence of […]. […] Villarroel and Schwarz, (1996) J.

[2] = system: A-current in cultured primary cerebellar granule neurons; test: Arachidonic acid effects on the A-current in cultured primary cerebellar granule neurons; assay type: cell-based; conditions: 10 μM arachidonic acid, TEA (10 mM) applied, mean±SEM
Protocol: The arachidonic acid effects on the A-current were also investigated in a neuronal system (cultured primary cerebellar granule neurons) where both Kv4 and KChIPs are present. TEA (10 mM) was applied to block a small sustained outward component. Inactivation time constants of the A current in the absence and presence of 10 μM arachidonic acid were 44±5 ms and 21±3 ms (mean±SEM), respectively. The corresponding peak amplitude was reduced from 2.0±0.6 nA to 1.2±0.4 nA.

[3] = Kv4.3/KChIP1, 10 μM AA, listed as AA

CCCCC/C=C\C/C=C\C/C=C\C/C=C\CCCC(=O)O [arachidonic acid]
Inactivation time constant (ms ± SEM) [1, 3]: 55 ± 4 ms
Peak amplitude (μA ± SEM) [1, 3]: 21±4 μA
block of Kv4.3 peak amplitude ([1]; Kv4.3/KChIP1, 10 μM fatty acid, vs no-fatty acid control): inhibited significantly
block of Kv4.3 peak amplitude ([1]; Kv4.3/KChIP1, 1-10 μM arachidonic acid): concentration-dependent block
effect on Kv4.3 inactivation time constant ([1]; Kv4.3 co-expressed with KChIP1, 10 μM fatty acid): reduced Kv4.3 inactivation time constant
effect on inactivation time constant ([1]; presence of KChIP1, 1-10 μM arachidonic acid): decreased in a concentration-dependent manner
Inactivation time constant of the A current [2]: 21 ± 3 ms
peak amplitude of the A current [2]: 1.2±0.4 nA
